The results in this text go back to patent US20230077362A1 (CORTEVA AGRISCIENCE LLC, priority 2019, published 2023).

What all share (assay type): in vivo
Data set [1] relates to Beet Armyworm (Spodoptera exigua) ("BAW"), second instar larvae. The data set can be described thus: Bioassay on beet armyworm (BAW), 128-well diet tray assay. To be noted: for pest or weed control at 50 µg/cm2: Spodoptera exigua, read-out: BAW (Biological Results, rating). A digest of the protocol: (§1)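 Each value represents average percent mortality from eight wells. Larvae were kept in clear-covered trays at 25° C. for five to seven days on a 14-hour light, 10-hour dark schedule before scoring.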

For data set [2], the system named is Cabbage Looper (Trichoplusia ni) ("CL"), second instar larvae. Nature of the data set: Bioassay on cabbage looper (CL), 128-well diet tray assay. As to conditions: for pest or weed control at 50 µg/cm2: Trichoplusia ni, read-out: CL (Biological Results, rating). A digest of the protocol: as §1
Data set [3] has as its system Green Peach Aphid ("GPA") (Myzus persicae), wingless adult and nymph stages. Nature of the data set: Bioassay on green peach aphid (GPA), foliar spray on infested cabbage seedlings. To be noted: for pest or weed control at 200 µg/mL: Myzus persicae, foliar, 72 h, read-out: GPA (Biological Results, rating). On the procedure: Certain molecules disclosed in this document were tested against GPA using procedures described in the following example. In the reporting of the results, the “GPA Rating Table” was used (See Table Section).
Cabbage seedlings grown in 3-inch pots, with 2-3 small (3-5 cm) true leaves, were used as test substrate. The seedlings were infested with 20-50 GPA (wingless adult and nymph stages) one day prior to chemical application. Four pots with individual seedlings were used for each treatment. Test compounds (2 mg) were dissolved in 2 mL of acetone/methanol (1:1) solvent, forming stock solutions of 1000 ppm test compound. […] A hand-held aspirator-type sprayer was used for spraying a solution to both sides of […] leaves until runoff. Reference plants (solvent check) were sprayed with the diluent only containing 20% by volume of acetone/methanol (1:1) solvent. Treated plants were held in a holding room for three days at approximately 25° C. and ambient relative humidity (RH) prior to grading. Evaluation was conducted by counting the number of live aphids per plant under a microscope.
Corrected % Control=100*(X−Y)/X • where • X=No. of live aphids on solvent check plants and • Y=No. of live aphids on treated plants
The results are indicated in the table entitled “Table ABC: Biological Results” (See Table Section).

`Cc1ccc(C(F)(F)F)c(N2C(=O)C(Cl)S/C2=N\C(=O)NCC(F)c2ccc(-c3ncn(-c4ccc(OC(F)(F)F)cc4)n3)cc2)c1` (stereo not drawn) [Compound H7]: the pest or weed control at 50 µg/cm2 in data set [1] and in data set [2] was 50 to 100% each time. For the same compound, in data set [3], the pest or weed control at 200 µg/mL lay within 0 to 80%.

On to `COc1ccc(CC(F)(F)F)c(N2C(=O)CS/C2=N\C(=O)NCC(F)c2ccc(-c3ncn(-c4ccc(OC(F)(F)F)cc4)n3)cc2)c1` (stereo not drawn) [Compound H14], for which the pest or weed control at 50 µg/cm2 in data set [1] and in data set [2] was 50 to 100% in each case. Besides, the pest or weed control at 200 µg/mL in data set [3] was in the range of 0 to 80%.

With `Cc1ccc(C(C)C)c(N2C(=O)CS/C2=N\C(=O)Nc2ccc(-c3ncn(-c4ccc(OC(F)(F)F)cc4)n3)cc2C)c1` [Compound J1, (Z)-1-(3-(2-isopropyl-5-methylphenyl)-4-oxothiazolidin-2-ylidene)-3-(2-methyl-4-(1-(4-(trifluoromethoxy)phenyl)-1H-1,2,4-triazol-3-yl)phenyl)urea], the pest or weed control at 50 µg/cm2 in data set [1] and in data set [2] was 50 to 100% in each case. The pest or weed control at 200 µg/mL in data set [3] was in the range of 0 to 80%.

With `Cc1ccc(C(C)C)c(N2C(=O)CS/C2=N\C(=O)Nc2ccc(-c3ncn(-c4ccc(OC(F)(F)F)cc4)n3)cc2F)c1` [Compound J19, (Z)-1-(2-Fluoro-4-(1-(4-(trifluoromethoxy)phenyl)-1H-1,2,4-triazol-3-yl)phenyl)-3-(3-(2-isopropyl-5-methylphenyl)-4-oxothiazolidin-2-ylidene)urea], the pest or weed control at 50 µg/cm2 in data set [1] and in data set [2] was 50 to 100% in each case. Besides, the pest or weed control at 200 µg/mL in data set [3] was 0 to 80%.

Turning to `Cc1ccc(C(C)C)c(N2C(=O)C(Cl)S/C2=N\C(=O)Nc2ccc(-c3ncn(-c4ccc(OC(F)(F)F)cc4)n3)cc2F)c1` (stereo not drawn) [Compound J32, (Z)-1-(5-chloro-3-(2-isopropyl-5-methylphenyl)-4-oxothiazolidin-2-ylidene)-3-(2-fluoro-4-(1-(4-(trifluoromethoxy)phenyl)-1H-1,2,4-triazol-3-yl)phenyl)urea], the pest or weed control at 50 µg/cm2 in data set [1] and in data set [2] was 50 to 100% throughout. Further, in data set [3], the pest or weed control at 200 µg/mL fell in the range of 0 to 80%.

For the compound `Cc1ccc(OCCC(F)(F)F)c(N2C(=O)CS/C2=N\C(=O)Nc2ccc(-c3ncn(-c4ccc(OC(F)(F)F)cc4)n3)cc2F)c1` [Compound J35, (Z)-1-(2-Fluoro-4-(1-(4-(trifluoromethoxy)phenyl)-1H-1,2,4-triazol-3-yl)phenyl)-3-(3-(5-methyl-2-(3,3,3-trifluoropropoxy)phenyl)-4-oxothiazolidin-2-ylidene)urea], the pest or weed control at 50 µg/cm2 in data set [1] and in data set [2] was 50 to 100% in each case. The pest or weed control at 200 µg/mL in data set [3] was 0 to 80%.

For the compound `CCCc1ccc(C)cc1N1C(=O)CS/C1=N\C(=O)Nc1ccc(-c2ncn(-c3ccc(OC(F)(F)F)cc3)n2)cc1F` [Compound J41, (Z)-1-(2-Fluoro-4-(1-(4-(trifluoromethoxy)phenyl)-1H-1,2,4-triazol-3-yl)phenyl)-3-(3-(5-methyl-2-propylphenyl)-4-oxothiazolidin-2-ylidene)urea], the pest or weed control at 200 µg/mL in data set [3] is 0 to 80%.

`COCc1ccc(C)cc1N1C(=O)CS/C1=N\C(=O)Nc1ccc(-c2ncn(-c3ccc(OC(F)(F)F)cc3)n2)cc1F` [Compound J66, (Z)-1-(2-Fluoro-4-(1-(4-(trifluoromethoxy)phenyl)-1H-1,2,4-triazol-3-yl)phenyl)-3-(3-(2-(methoxymethyl)-5-methylphenyl)-4-oxothiazolidin-2-ylidene)urea]: the pest or weed control at 50 µg/cm2 in data set [1] and in data set [2] was 50 to 100% throughout. For the same compound, the pest or weed control at 200 µg/mL in data set [3] fell in the range of 0 to 80%.

With `CCc1cc(-c2ncn(-c3ccc(OC(F)(F)F)cc3)n2)ccc1NC(=O)/N=C1\SCC(=O)N1c1cc(C)ccc1C(C)C` [Compound J70, (Z)-1-(2-Ethyl-4-(1-(4-(trifluoromethoxy)phenyl)-1H-1,2,4-triazol-3-yl)phenyl)-3-(3-(2-isopropyl-5-methylphenyl)-4-oxothiazolidin-2-ylidene)urea], the pest or weed control at 50 µg/cm2 in data set [1] and in data set [2] was 50 to 100% throughout. The pest or weed control at 200 µg/mL in data set [3] lay in the range of 0 to 80%.

Turning to `CCc1cc(-c2ncn(-c3ccc(OC(F)(F)F)cc3)n2)ccc1NC(=O)/N=C1\SCC(=O)N1c1cc(OC)ccc1C(C)C` [Compound J71, (Z)-1-(2-Ethyl-4-(1-(4-(trifluoromethoxy)phenyl)-1H-1,2,4-triazol-3-yl)phenyl)-3-(3-(2-isopropyl-5-methoxyphenyl)-4-oxothiazolidin-2-ylidene)urea], the pest or weed control at 50 µg/cm2 in data set [1] and in data set [2] was 50 to 100% in each case. For the same compound, the pest or weed control at 200 µg/mL in data set [3] fell in the range of 0 to 80%.

As to `CCc1cc(-c2ncn(-c3ccc(OC(F)(F)F)cc3)n2)ccc1NC(=O)/N=C1\SCC(=O)N1c1cc(C)ccc1COC` [Compound J72, (Z)-1-(2-Ethyl-4-(1-(4-(trifluoromethoxy)phenyl)-1H-1,2,4-triazol-3-yl)phenyl)-3-(3-(2-(methoxymethyl)-5-methylphenyl)-4-oxothiazolidin-2-ylidene)urea], the pest or weed control at 50 µg/cm2 in data set [1] and in data set [2] was 50 to 100% in each case. For the same compound, in data set [3], the pest or weed control at 200 µg/mL lay in the range of 0 to 80%.

As for `CCc1cc(-c2ncn(-c3ccc(OC(F)(F)F)cc3)n2)ccc1NC(=O)/N=C1\SCC(=O)N1c1cc(C)ccc1OCCC(F)(F)F` [Compound J73, (Z)-1-(2-Ethyl-4-(1-(4-(trifluoromethoxy)phenyl)-1H-1,2,4-triazol-3-yl)phenyl)-3-(3-(5-methyl-2-(3,3,3-trifluoropropoxy)phenyl)-4-oxothiazolidin-2-ylidene)urea], the pest or weed control at 50 µg/cm2 in data set [1] and in data set [2] was 50 to 100% in each case. Also, the pest or weed control at 200 µg/mL in data set [3] lay within 0 to 80%.

As for `CCc1cc(-c2ncn(-c3ccc(OC(F)(F)F)cc3)n2)ccc1NC(=O)/N=C1\SCC(=O)N1c1cc(C)ccc1C(C)OC` (stereo not drawn) [Compound J74, (Z)-1-(2-Ethyl-4-(1-(4-(trifluoromethoxy)phenyl)-1H-1,2,4-triazol-3-yl)phenyl)-3-(3-(2-(1-methoxyethyl)-5-methylphenyl)-4-oxothiazolidin-2-ylidene)urea], the pest or weed control at 50 µg/cm2 in data set [1] and in data set [2] was 50 to 100% throughout. For the same compound, the pest or weed control at 200 µg/mL in data set [3] was in the range of 0 to 80%.

As for `CCc1cc(-c2ncn(-c3ccc(OC(F)(F)F)cc3)n2)ccc1NC(=O)/N=C1\SCC(=O)N1c1cc(C)ccc1OCC(F)(F)F` [Compound J75, (Z)-1-(2-Ethyl-4-(1-(4-(trifluoromethoxy)phenyl)-1H-1,2,4-triazol-3-yl)phenyl)-3-(3-(5-methyl-2-(2,2,2-trifluoroethoxy)phenyl)-4-oxothiazolidin-2-ylidene)urea], the pest or weed control at 50 µg/cm2 in data set [1] and in data set [2] was 50 to 100% in each case. Further, the pest or weed control at 200 µg/mL in data set [3] was 0 to 80%.

On to `CC(C)c1ccc(C#N)cc1N1C(=O)CS/C1=N\C(=O)Nc1ccc(-c2ncn(-c3ccc(OC(F)(F)F)cc3)n2)cc1F` [Compound J76, (Z)-1-(3-(5-Cyano-2-isopropylphenyl)-4-oxothiazolidin-2-ylidene)-3-(2-fluoro-4-(1-(4-(trifluoromethoxy)phenyl)-1H-1,2,4-triazol-3-yl)phenyl)urea], for which the pest or weed control at 200 µg/mL in data set [3] was 0 to 80%.

With `CCOc1ccc(C(C)C)c(N2C(=O)CS/C2=N\C(=O)Nc2ccc(-c3ncn(-c4ccc(OC(F)(F)F)cc4)n3)cc2F)c1` [Compound J191, (Z)-1-(3-(5-Ethoxy-2-isopropylphenyl)-4-oxothiazolidin-2-ylidene)-3-(2-fluoro-4-(1-(4-(trifluoromethoxy)phenyl)-1H-1,2,4-triazol-3-yl)phenyl)urea], the pest or weed control at 200 µg/mL in data set [3] was 0 to 80%.

Regarding `Cc1ccc(-c2ccccc2)c(N2C(=O)CS/C2=N\C(=O)Nc2ccc(-c3ncn(-c4ccc(OC(F)(F)F)cc4)n3)cc2F)c1` [Compound J785, (Z)-1-(2-Fluoro-4-(1-(4-(trifluoromethoxy)phenyl)-1H-1,2,4-triazol-3-yl)phenyl)-3-(3-(4-methyl-[1,1′-biphenyl]-2-yl)-4-oxothiazolidin-2-ylidene)urea], the “GPA rating (% control or mortality class)” value in data set [3] (Table ABC, species GPA, foliar spray on infested cabbage seedlings) is recorded as “D (No activity noticed in this bioassay)”.

As for “(Z)-1-(3-(5-ethoxy-2-((2,2,2-trifluoroethoxy)methyl)phenyl)-4-oxothiazolidin-2-ylidene)-3-(2-methyl-4-(1-(4-(trifluoromethoxy)phenyl))-1H-1,2,4-triazol-3-yl)phenyl)urea [Compound J575]”, the BAW rating entry in data set [1] (Table ABC, species BAW, C = not tested, D = no activity noticed) is on record as “A (50-100)”. Moreover, the CL rating entry in data set [2] (Table ABC, species CL, C = not tested, D = no activity noticed) is listed as “A (50-100)”.
